In one data set the target is T1, mouse DGAT1 (Mus musculus, UniProt Q9Z2A7).
T1 construct: made in house; host or cells: insect cells (High Five, Sf9, Sf21, etc.), baculovirus expression system (Invitrogen)
T1 sequence (Q9Z2A7 1-498): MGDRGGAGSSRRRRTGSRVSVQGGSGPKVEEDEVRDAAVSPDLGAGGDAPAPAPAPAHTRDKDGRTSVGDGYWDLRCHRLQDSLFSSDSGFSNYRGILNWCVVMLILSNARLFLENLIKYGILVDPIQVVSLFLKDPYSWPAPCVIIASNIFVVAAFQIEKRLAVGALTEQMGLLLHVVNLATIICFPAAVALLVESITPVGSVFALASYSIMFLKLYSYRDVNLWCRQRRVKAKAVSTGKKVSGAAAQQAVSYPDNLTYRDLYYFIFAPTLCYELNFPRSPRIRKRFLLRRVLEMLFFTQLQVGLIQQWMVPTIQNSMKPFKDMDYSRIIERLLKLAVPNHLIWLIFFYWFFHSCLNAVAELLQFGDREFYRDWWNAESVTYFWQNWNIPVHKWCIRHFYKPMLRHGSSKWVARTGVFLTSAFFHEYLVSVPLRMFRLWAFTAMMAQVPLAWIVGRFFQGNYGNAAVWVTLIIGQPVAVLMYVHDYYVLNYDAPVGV
The experiment in a line: DGAT1 inhibitory effect test (microsome fraction, [14C]-oleoyl-CoA, triglyceride radioactivity by TLC). It counts as biochemical. To be noted: 0.5 h; concentration of the test compound 0.1 μg/ml; mouse DGAT1 microsomes, 23° C., 30 minutes; read-out: Inhibitory ratio. Summed up: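 Inhibition was scored from radiolabelled triglyceride separated by TLC, relative to vehicle and net of a 0-min background. The reaction ran for 30 min at room temperature (23 °C) in Tris-HCl pH 8.0 with MgCl2, BSA and Triton X-100. Substrates were 30 μM [14C]-oleoyl-CoA and 0.5 mM dioleoylglycerol, with mouse DGAT1 microsomes from baculovirus-infected insect cells as enzyme.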

Some results are limits rather than exact numbers.

The term melting point denotes the temperature, or range, at which the solid turns liquid.

`COc1ccc(C)cc1NC(=O)Nc1ccc(N2CCN(C(=O)Nc3ccc(OCCO)cc3C(F)(F)F)CC2)cc1` [Example 209, 4-{4-[3-(2-methoxy-5-methyl-phenyl)-ureido]-phenyl}-piperazine-1-carboxylic acid [4-(2-hydroxy-ethoxy)-2-trifluoromethyl-phenyl]-amide] had a melting point of 175 to 177 °C. Besides, the inhibition at 0.1 µg/mL at mouse DGAT1 is no less than 50%.

Molecule `COc1ccc(C)cc1NC(=O)Nc1ccc(N2CCN(C(=O)Nc3ccc(OCCO)cc3F)CC2)cc1` [Example 210, 4-{4-[3-(2-methoxy-5-methyl-phenyl)-ureido]-phenyl}-piperazine-1-carboxylic acid [2-fluoro-4-(2-hydroxy-ethoxy)-phenyl]-amide] returned a melting point of 214 to 215 °C. The inhibition at 0.1 µg/mL on mouse DGAT1 was no less than 50%.

On to `O=C(Nc1ccc(N2CCN(C(=O)Nc3ccc(OCCO)cc3C(F)(F)F)CC2)cc1)Nc1ccccc1F` [Example 211, 4-{4-[3-(2-fluoro-phenyl)-ureido]-phenyl}-piperazine-1-carboxylic acid [4-(2-hydroxy-ethoxy)-2-trifluoromethyl-phenyl]-amide], for which the melting point was in the range of 219 to 220 °C. Besides, the inhibition at 0.1 µg/mL at mouse DGAT1 was no less than 50%.

Regarding `COc1ccc(F)cc1NC(=O)Nc1ccc(N2CCN(C(=O)Nc3ccc(OCCO)cc3C(F)(F)F)CC2)cc1` [Example 212, 4-{4-[3-(5-fluoro-2-methoxy-phenyl)-ureido]-phenyl}-piperazine-1-carboxylic acid [4-(2-hydroxy-ethoxy)-2-trifluoromethyl-phenyl]-amide], the melting point was in the range of 140 to 141 °C. Also, the inhibition at 0.1 µg/mL on mouse DGAT1 was no less than 50%.

As to `Cc1cnc(NC(=O)Nc2ccc(N3CCN(C(=O)Nc4ccc(OCCO)cc4C(F)(F)F)CC3)cc2)s1` [Example 213, 4-{4-[3-(5-methyl-thiazol-2-yl)-ureido]-phenyl}-piperazine-1-carboxylic acid [4-(2-hydroxy-ethoxy)-2-trifluoromethyl-phenyl]-amide], the melting point is 118 to 120 °C. In addition, the inhibition at 0.1 µg/mL at mouse DGAT1 is no less than 50%.

With `COc1cccc(NC(=O)Nc2ccc(N3CCN(C(=O)Nc4ccc(OCCO)cc4C(F)(F)F)CC3)cc2)c1` [Example 214, 4-{4-[3-(3-methoxy-phenyl)-ureido]-phenyl}-piperazine-1-carboxylic acid [4-(2-hydroxy-ethoxy)-2-trifluoromethyl-phenyl]-amide], the melting point fell in the range of 214 to 215 °C. On mouse DGAT1, the inhibition at 0.1 µg/mL was no less than 50%.

For `CCOc1cccc(NC(=O)Nc2ccc(N3CCN(C(=O)Nc4ccc(OCCO)cc4C(F)(F)F)CC3)cc2)c1` [Example 215, 4-{4-[3-(3-ethoxy-phenyl)-ureido]-phenyl}-piperazine-1-carboxylic acid [4-(2-hydroxy-ethoxy)-2-trifluoromethyl-phenyl]-amide], the melting point lay within 108 to 110 °C. Further, the inhibition at 0.1 µg/mL on mouse DGAT1 is no less than 50%.

On to `COc1cc(NC(=O)Nc2ccc(N3CCN(C(=O)Nc4ccc(OCCO)cc4C(F)(F)F)CC3)cc2)cc(OC)c1` [Example 216, 4-{4-[3-(3,5-dimethoxy-phenyl)-ureido]-phenyl}-piperazine-1-carboxylic acid [4-(2-hydroxy-ethoxy)-2-trifluoromethyl-phenyl]-amide], for which the melting point fell in the range of 209 to 210 °C. Also, at mouse DGAT1, the inhibition at 0.1 µg/mL was no less than 50%.

Consider `COc1ccccc1NC(=O)Nc1ccc(N2CCN(C(=O)Nc3ccc(OCCO)cc3C(F)(F)F)CC2)cc1` [Example 217, 4-{4-[3-(2-methoxy-phenyl)-ureido]-phenyl}-piperazine-1-carboxylic acid [4-(2-hydroxy-ethoxy)-2-trifluoromethyl-phenyl]-amide], for which the melting point fell in the range of 118 to 120 °C. Besides, the inhibition at 0.1 µg/mL at mouse DGAT1 was no less than 50%.

`COc1ccc(C)cc1NC(=O)Nc1ccc(N2CCCN(C(=O)Nc3ccc(OCCO)cc3C(F)(F)F)CC2)cc1` [Example 218, 4-{4-[3-(2-methoxy-5-methyl-phenyl)-ureido]-phenyl}-perhydro-1,4-diazepine-1-carboxylic acid [4-(2-hydroxy-ethoxy)-2-trifluoromethyl-phenyl]-amide] came in with a melting point of 118 to 120 °C. Further, the inhibition at 0.1 µg/mL on mouse DGAT1 was no less than 50%.

In turn, `COc1ccc(C)cc1NC(=O)Nc1ccc(N2CCN(C(=O)Nc3ccc(OCCO)cc3C)CC2)nc1` [Example 219, 4-{5-[3-(2-methoxy-5-methyl-phenyl)-ureido]-pyridin-2-yl}-piperazine-1-carboxylic acid [4-(2-hydroxy-ethoxy)-2-methyl-phenyl]-amide] displayed a melting point of 189 to 190 °C. Besides, on mouse DGAT1, the inhibition at 0.1 µg/mL was no less than 50%.

Turning to `COc1ccc(C)cc1NC(=O)Nc1ccc(N2CCN(C(=O)Nc3ccc(OCCO)cc3C(F)(F)F)CC2)nc1` [Example 220, 4-{5-[3-(2-methoxy-5-methyl-phenyl)-ureido]-pyridin-2-yl}-piperazine-1-carboxylic acid [4-(2-hydroxy-ethoxy)-2-trifluoromethyl-phenyl]-amide], the melting point is 198 to 200 °C. The inhibition at 0.1 µg/mL at mouse DGAT1 is no less than 50%.

`O=C(Nc1ccc(N2CCN(C(=O)Nc3ccc(OCCO)cc3C(F)(F)F)CC2)c(Cl)c1)Nc1ccccc1F` [Example 221, 4-{2-chloro-4-[3-(2-fluoro-phenyl)-ureido]-phenyl}-piperazine-1-carboxylic acid [4-(2-hydroxy-ethoxy)-2-trifluoromethyl-phenyl]-amide] registered a melting point of 199 to 200 °C. In addition, the inhibition at 0.1 µg/mL on mouse DGAT1 is no less than 50%.

Take `O=C(Nc1ccc(N2CCN(C(=O)Nc3ccc(OCCO)cc3C(F)(F)F)CC2)nc1)Nc1ccccc1F` [Example 222, 4-{5-[3-(2-fluoro-phenyl)-ureido]-pyridin-2-yl}-piperazine-1-carboxylic acid [4-(2-hydroxy-ethoxy)-2-trifluoromethyl-phenyl]-amide]: the melting point lay within 193 to 194 °C. Further, the inhibition at 0.1 µg/mL at mouse DGAT1 was no less than 50%.

The molecule `COc1ccc(F)cc1NC(=O)Nc1ccc(N2CCN(C(=O)Nc3ccc(OCCO)cc3C(F)(F)F)CC2)nc1` [Example 223, 4-{5-[3-(5-fluoro-2-methoxy-phenyl)-ureido]-pyridin-2-yl}-piperazine-1-carboxylic acid [4-(2-hydroxy-ethoxy)-2-trifluoromethyl-phenyl]-amide] came in with a melting point of 172 to 173 °C. On mouse DGAT1, the inhibition at 0.1 µg/mL was no less than 50%.

For the molecule `CC(C)(C)c1csc(NC(=O)Nc2ccc(N3CCN(C(=O)Nc4ccc(OCCO)cc4C(F)(F)F)CC3)cc2)n1` [Example 224, 4-{4-[3-(4-tert-butyl-thiazol-2-yl)-ureido]-phenyl}-piperazine-1-carboxylic acid [4-(2-hydroxy-ethoxy)-2-trifluoromethyl-phenyl]-amide], the melting point is 130 to 132 °C. Further, the inhibition at 0.1 µg/mL at mouse DGAT1 is no less than 50%.

Regarding `Cc1nc(NC(=O)Nc2ccc(N3CCN(C(=O)Nc4ccc(OCCO)cc4C(F)(F)F)CC3)cc2)sc1C` [Example 225, 4-{4-[3-(4,5-dimethyl-thiazol-2-yl)-ureido]-phenyl}-piperazine-1-carboxylic acid [4-(2-hydroxy-ethoxy)-2-trifluoromethyl-phenyl]-amide], the melting point lay in the range of 166 to 167 °C. In addition, the inhibition at 0.1 µg/mL on mouse DGAT1 was no less than 50%.

The molecule `COc1ccc(C)cc1NC(=O)Nc1ccc2c(c1)CCN(C(=O)Nc1ccc(OCCO)cc1C(F)(F)F)C2` [Example 226, 6-[3-(2-methoxy-5-methyl-phenyl)-ureido]-3,4-dihydro-1H-isoquinoline-2-carboxylic acid [4-(2-hydroxy-ethoxy)-2-trifluoromethyl-phenyl]-amide] gave a melting point of 122 to 124 °C. The inhibition at 0.1 µg/mL on mouse DGAT1 is no less than 50%.

For `O=C(Nc1ccc2c(c1)CCN(C(=O)Nc1ccc(OCCO)cc1C(F)(F)F)C2)Nc1ccccc1F` [Example 227, 6-[3-(2-fluoro-phenyl)-ureido]-3,4-dihydro-1H-isoquinoline-2-carboxylic acid [4-(2-hydroxy-ethoxy)-2-trifluoromethyl-phenyl]-amide], the melting point lay in the range of 162 to 164 °C. Further, the inhibition at 0.1 µg/mL on mouse DGAT1 is no less than 50%.

In the case of `COc1ccc(C)cc1NC(=O)Nc1ccc(C2CCN(C(=O)Nc3c(C)cccc3Cl)CC2)cc1` [Example 228, 4-{4-[3-(2-methoxy-5-methyl-phenyl)-ureido]-phenyl}-piperidine-1-carboxylic acid (2-chloro-6-methyl-phenyl)-amide], the melting point fell in the range of 234 to 236 °C. Further, the inhibition at 0.1 µg/mL at mouse DGAT1 is no less than 50%.

`O=C(Nc1ccc(C2=CCN(C(=O)Nc3ccc(OCCO)cc3C(F)(F)F)CC2)cc1)Nc1ccccc1F` [Example 229, 4-{4-[3-(2-fluoro-phenyl)-ureido]-phenyl}-3,6-dihydro-2H-pyridine-1-carboxylic acid [4-(2-hydroxy-ethoxy)-2-trifluoromethyl-phenyl]-amide] showed a melting point of 110 to 112 °C. Moreover, at mouse DGAT1, the inhibition at 0.1 µg/mL was no less than 50%.

Values taken from patent US20070249620A1, “Urea Derivative” (priority 2004, published 2007).
